Measured values reported in ChEMBL document CHEMBL1158597, “Investigation of Beckett-Casy model 2: synthesis of novel 15-16 nornaltrexone derivatives and their pharmacology” (Bioorg Med Chem Lett, 2010).

Tests used:
[1] = molecular target: Kappa-type opioid receptor (Cavia porcellus, UniProt P41144); assay: Displacement of [3H][…] from kappa opioid receptor in Hartley guinea pig cerebellum by liquid scintillation counter; assay type: tissue-based
[2] = Displacement of [3H]NTI from delta opioid receptor in Hartley guinea pig forebrain by liquid scintillation counter; design: species or system Cavia porcellus
Mu-type opioid receptor = Mu-type opioid receptor (Cavia porcellus, UniProt P97266); assay: Displacement of [3H]DAMGO from mu opioid receptor in Hartley guinea pig forebrain by liquid scintillation counting
Sequence of Mu-type opioid receptor (P97266 whole entry): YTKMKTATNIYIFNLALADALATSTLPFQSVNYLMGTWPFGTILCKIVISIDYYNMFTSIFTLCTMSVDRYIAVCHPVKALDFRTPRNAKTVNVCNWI

Sequence of Kappa-type opioid receptor (P41144 whole entry): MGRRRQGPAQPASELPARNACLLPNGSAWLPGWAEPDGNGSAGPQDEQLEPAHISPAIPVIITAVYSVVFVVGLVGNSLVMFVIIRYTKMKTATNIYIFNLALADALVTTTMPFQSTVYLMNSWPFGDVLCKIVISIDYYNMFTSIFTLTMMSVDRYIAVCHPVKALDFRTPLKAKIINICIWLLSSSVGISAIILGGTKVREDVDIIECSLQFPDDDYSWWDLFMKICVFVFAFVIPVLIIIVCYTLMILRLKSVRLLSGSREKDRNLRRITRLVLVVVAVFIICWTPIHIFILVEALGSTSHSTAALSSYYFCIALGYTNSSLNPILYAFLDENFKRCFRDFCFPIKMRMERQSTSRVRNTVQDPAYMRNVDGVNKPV

Structure (SMILES)	Ki [1]	Ki [2]	Ki (Mu-type opioid receptor)	IC50 [1]	IC50 [2]	IC50 (Mu-type opioid receptor)
CN(CC1CC1)[C@@H]1Cc2ccc(O)c3c2[C@@H]2[C@H]1CCC(=O)[C@@H]2O3	0.00881 µM	0.272 µM	0.00336 µM			
CN(C)[C@@H]1Cc2ccc(O)c3c2[C@@H]2[C@H]1CCC(=O)[C@@H]2O3			0.0509 µM	> 1 µM	> 1 µM	
CN[C@@H]1Cc2ccc(O)c3c2[C@H]2[C@@H](O3)C(=O)CC[C@@]12O			0.118 µM	> 1 µM	> 1 µM	
O=C1CC[C@@]2(O)[C@H](NCC3CC3)Cc3ccc(O)c4c3[C@H]2[C@H]1O4	0.0684 µM		0.0247 µM		> 1 µM	
CN(C)[C@@H]1Cc2ccc(O)c3c2[C@H]2[C@@H](O3)C(=O)CC[C@]21O			0.00895 µM	> 1 µM	> 1 µM	
CN[C@@H]1Cc2ccc(O)c3c2[C@@H]2[C@H]1CCC(=O)[C@@H]2O3			0.164 µM	> 1 µM	> 1 µM	
CN(CC1CC1)[C@@H]1Cc2ccc(O)c3c2[C@H]2[C@@H](O3)C(=O)CC[C@]21O	0.0051 µM	0.0552 µM	0.00117 µM			
O=C1CC[C@@]23OCCN(CC4CC4)[C@@H]2Cc2ccc(O)c4c2[C@H]3[C@H]1O4			0.294 µM	> 1 µM	> 1 µM	
CN1CCO[C@@]23CCC(=O)[C@@H]4Oc5c(O)ccc(c5[C@@H]42)C[C@@H]13				> 1 µM	> 1 µM	> 1 µM
O=C1CC[C@]23OCCN4CC[C@@]25c2c(ccc(O)c2O[C@@H]15)C[C@@H]43	0.0726 µM		0.086 µM		> 1 µM	
O=C1CC[C@@H]2[C@H]3c4c(ccc(O)c4O[C@@H]13)C[C@H]2NCC1CC1	0.0322 µM		0.0303 µM		> 1 µM	
